Values quoted from earlier work in article PMC10307885, “A Phase 1/2 trial of SRA737 (a Chk1 inhibitor) administered orally in patients with advanced cancer” (British Journal of Cancer, 2023).

What was measured:
[1] = test system: patients; conditions: cited from earlier work
[2] = test system: patients; conditions: cited from earlier work; remark: listed apart in the source
[3] = in combination with standard dose gemcitabine

NC(=O)Nc1cc(-c2cccc(F)c2)sc1C(=O)N[C@H]1CCCNC1 [AZD7762]
toxicity that halted development ([1]; intravenously administered): cardiac toxicity including a drop in ejection fraction

N[C@@H]1CCCN(c2c(Br)cnc3[nH]cc(NC(=O)C4CC4)c23)C1 [GDC-0575]
Treatment-related neutropenia of NCI CTCAE Grade 3 or higher [1, 3]: 60 % of patients
treatment-related GI adverse events of all grades: diarrhoea [1, 3]: 18%
treatment-related GI adverse events of all grades: nausea [1, 3]: 43%
treatment-related GI adverse events of all grades: vomiting [1, 3]: 27%
partial or complete responses ([2]; used as a single agent): did not report partial or complete responses

COc1cccc(OCCCN)c1-c1cc(Nc2cnc(C#N)cn2)n[nH]1 [prexasertib]
rate of diarrhoea ([1]; intravenous, Phase 2 study): 20%
rate of nausea ([1]; intravenous, Phase 2 study): 36%
rate of vomiting ([1]; intravenous, Phase 2 study): 27%
efficacy in squamous anal and head and neck cancers ([2]; intravenous, Phase 1 study): partial responses
response rate ([2]; patients with high-grade serous ovarian cancers): 33%
